# Measured values: patent US8557859B2, “Immunomodulatory compositions” (Summit (Wales) Limited, priority 2003, dated 2013)
# Tests used:
# Dendritic cells = assay: Induction of IL-12 secretion in dendritic cells (ELISA); assay type: cell-based, BALB/c mice; settings: dendritic cells; compounds 50 μg/ml and 20 μg/ml, 24 hrs (or 48 hrs)
# Experimental: BALB/c male and female mice bred and maintained at the University of Strathclyde under conventional conditions were used at 8 weeks old.
# Bone marrow was obtained from the femurs of mice. The femurs were washed in 70% ethanol and placed in a clean petri dish. Dendritic cell (DC) medium (2.5% granulocyte-macrophage colony-stimulating factor (GM-CSF), 10% […] foetal calf serum, 1% L-glutamine, 1% Penicillin/Streptomycin in RPMI-1640 medium) was injected into the bone marrow of the femur by a pumping action and the cells and medium were collected. 1 ml of the cells in medium was added to a 75 cm^2 flask with 15 mls of DC medium. The flasks were then incubated at 37° C., 5% CO2 to allow DC growth and development. After 5 days an additional 10 mls of DC medium was added.
# After 10 days of incubation of bone marrow with GM-CSF, the dendritic cells were harvested. This process was carried out in a tissue culture hood. The contents of the flasks were poured into centrifuge tubes to ensure collection of floating DCs. Approximately 10 mls of cooled phosphate buffered saline (PBS) was added to each empty flask, the flasks gently agitated and the contents collected. […] The collected contents of the flasks were centrifuged for 5 minutes at 200 g and the pellet resuspended in 2 mls of DC medium without GM-CSF. A cell count was then carried out.
# Cells were counted using a haemocytometer. Approximately 20 μl of the resuspended cells was pipetted into the chamber of the haemocytometer, the cells were adjusted to the correct cell concentration (approx. 5×10^4, and not less than 1×10^4, per well) and then plated out for assay.
# The plates were incubated overnight at 37° C. with 5% CO2 and allowed to settle (harvesting stimulates them). The next day the compounds (50 μg/ml and 20 μg/ml) and controls were added then again incubated at 37° C. with 5% CO2 for 24 hrs (or 48 hrs). Harvesting and addition of the compounds was all done in a hood. The plates were then frozen to kill the cells and once defrosted the supernatant analysed as described below.
# Using an enzyme linked immunosorbent assay (ELISA) IL-12 concentration in the supernatants was measured. All reagents used in this assay were from PharMingen. A 96-well flat-bottomed ELISA plate was coated with purified rat anti-mouse IL-12 (p40/p70) MAb (Cat no. 554478) at 2 μg/ml diluted in PBS pH 9.0 at 50 μl/well. The plate was then covered in cling film and incubated at 4° C. Following incubation the plate was washed 3 times in washing buffer and dried. 200 μl of blocking buffer (10% foetal calf serum in PBS pH 7.0) was added to each well then covered in cling film and incubated at 37° C. for 45 minutes. The plate was washed 3 times and dried. Recombinant mouse Il-12 standard was added at 30 μl in duplicate wells, starting at 10 ng/ml then 5, 2.5, 1.25, 0.625, 0.31, 0.156, 0.078, 0.039, 0.020, 0.010, 0.005 ng/ml. Standards were diluted in blocking buffer. The supernatant samples were added in at 50 μl/well. The plate was then covered in cling film and incubated for 2 hours at 37° C. The plate was then washed 4 times, dried and the secondary antibody added.
# Biotin labelled anti-mouse IL-12 (p40/p70) MAb (Cat no. 18482D) at 1 μg/ml (diluted in blocking buffer) was added to each well at a volume of 100 μl/well. The plate was covered in cling film and incubated at 37° C. for 1 hour. The plate was then washed 5 times, dried and the conjugate added. Streptavidin-AKP (Cat no. 13043E) at 100 μl/well was added at a dilution of 1/2000 in blocking buffer followed by incubation under cling film at 37° C. for 45 minutes.
# The plate was finally washed 6 times, dried and the substrate added. pNPP (Sigma) in glycine buffer at 1 mg/ml was added at 100 μl/well. The plate was then covered in tinfoil, incubated at 37° C. and checked every 30 minutes for a colour change.
# The plate was then read at 405 nm using a SPECTRAmax 190 spectrometer.
# [1] = target: rabbit gut mucosa α-D-glucosidase; assay: Inhibition of rabbit gut mucosa α-D-glucosidase; assay type: biochemical
# [2] = Treatment of murine HSV-1 infection: body weight; assay type: in vivo, BALB/c mice
# β-D-glucosidase = assay: Glycosidase inhibition, β-D-glucosidase; assay type: biochemical, Almonds (Prunus sp.)
# Experimental: (§1) All enzymes were purchased from Sigma, as were the appropriate p-nitrophenyl substrates. Assays were carried out in microtitre plates. Enzymes were assayed in 0.1 M citric acid/0.2M di-sodium hydrogen phosphate (McIlvaine) buffers at the optimum pH for the enzyme. All assays were carried out at 20° C. For screening assays the incubation assay consisted of 10 μl of enzyme solution, 10 μl of inhibitor solution (made up in water) and 50 μl of the appropriate 5 mM p-nitrophenyl substrate (3.57 mM final conc.) made up in McIlvaine buffer at the optimum pH for the enzyme.
# (§2) The reactions were stopped with 0.4M glycine (pH 10.4) during the exponential phase of the reaction, which was determined at the beginning of the assay using blanks with water, which were incubated for a range of time periods to measure the reaction rate using 5 mM substrate solution. Endpoint absorbances were read at 405 nm with a Biorad microtitre plate reader (Benchmark). Water was substituted for the inhibitors in the blanks.
# Naringinase = assay: Glycosidase inhibition, Naringinase; assay type: biochemical, Penecillium decumbens; settings: 1 mg/ml
# Experimental: as §1, §2
# [3] = system: N-acetyl-β-D-glucosaminidase; assay: Glycosidase inhibition, N-acetyl-β-D-glucosaminidase; assay type: biochemical, Bovine kidney; settings: 1 mg/ml
# Experimental: as §1, §2
# [4] = Group 1: 15 mg/kg i.p. daily, day 0
# [5] = Group 1: 15 mg/kg i.p. daily, day 1
# [6] = Group 1: 15 mg/kg i.p. daily, day 2
# [7] = Group 1: 15 mg/kg i.p. daily, day 3
# [8] = Group 1: 15 mg/kg i.p. daily, day 4
# [9] = Group 1: 15 mg/kg i.p. daily, day 5
# [10] = Group 1: 15 mg/kg i.p. daily, day 6
# [11] = Group 1: 15 mg/kg i.p. daily, day 7
# [12] = Group 1: 15 mg/kg i.p. daily, day 8
# [13] = Group 1: 15 mg/kg i.p. daily, day −2
# [14] = Group 2: 150 mg/kg i.p. daily, day 0
# [15] = Group 2: 150 mg/kg i.p. daily, day 1
# [16] = Group 2: 150 mg/kg i.p. daily, day 2
# [17] = Group 2: 150 mg/kg i.p. daily, day 3
# [18] = Group 2: 150 mg/kg i.p. daily, day 4
# [19] = Group 2: 150 mg/kg i.p. daily, day 5
# [20] = Group 2: 150 mg/kg i.p. daily, day 6
# [21] = Group 2: 150 mg/kg i.p. daily, day 7
# [22] = Group 2: 150 mg/kg i.p. daily, day 8
# [23] = Group 2: 150 mg/kg i.p. daily, day −2
smiles,measurement,setting,value
"OC[C@@H]1[C@@H](O)[C@H](O)[C@H]2[C@H](O)[C@@H](O)CN21 [casuarine (8), (1R,2R,3R,6S,7S,7aR)-3-(hydroxymethyl)-1,2,6,7-tetrahydroxypyrrolizidine]",IL-12 RELEASE,Dendritic cells,Yes
same,IC50,[1],210 µM
same,Group mean weight,[2]; [4],16.7 g
same,Weight (% change),[2]; [4],3.1%
same,Group mean weight,[2]; [5],17.1 g
same,Weight (% change),[2]; [5],5.6%
same,Group mean weight,[2]; [6],17.1 g
same,Weight (% change),[2]; [6],5.6%
same,Group mean weight,[2]; [7],17.6 g
same,Weight (% change),[2]; [7],8.6%
same,Group mean weight,[2]; [8],17.4 g
same,Weight (% change),[2]; [8],7.4%
same,Group mean weight,[2]; [9],17.6 g
same,Weight (% change),[2]; [9],8.6%
same,Group mean weight,[2]; [10],17.7 g
same,Weight (% change),[2]; [10],9.2%
same,Group mean weight,[2]; [11],17.4 g
same,Weight (% change),[2]; [11],7.4%
same,Group mean weight,[2]; [12],17.7 g
same,Weight (% change),[2]; [12],9.3%
same,Group mean weight,[2]; [13],16.2 g
same,Weight (% change),[2]; [13],0%
same,Group mean weight,[2]; [14],16 g
same,Weight (% change),[2]; [14],3.2%
same,Group mean weight,[2]; [15],16.4 g
same,Weight (% change),[2]; [15],5.8%
same,Group mean weight,[2]; [16],16.3 g
same,Weight (% change),[2]; [16],5.2%
same,Group mean weight,[2]; [17],16.6 g
same,Weight (% change),[2]; [17],7.1%
same,Group mean weight,[2]; [18],16.4 g
same,Weight (% change),[2]; [18],5.8%
same,Group mean weight,[2]; [19],16.8 g
same,Weight (% change),[2]; [19],8.4%
same,Group mean weight,[2]; [20],17 g
same,Weight (% change),[2]; [20],9.7%
same,Group mean weight,[2]; [21],16.7 g
same,Weight (% change),[2]; [21],7.7%
same,Group mean weight,[2]; [22],16.8 g
same,Weight (% change),[2]; [22],8.4%
same,Group mean weight,[2]; [23],15.5 g
same,Weight (% change),[2]; [23],0%
same,% inhibition glucosidase,β-D-glucosidase; 1 mg/ml,0%
same,inhibition of almond 6-D-glucosidase,β-D-glucosidase; at 800 μM,not being inhibitory
same,% inhibition Naringinase,Naringinase,−2%
same,% inhibition N-acetyl-β-gluc,[3],14%
